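The compound was tested at five concentrations on cells cultured in 96-well plates, with a 48-hour exposure period. GI50: concentration for 50% inhibition of growth.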 Activity calls are given as the source filed them. No stated cut-off is given here; in the data, active = GI50 up to about 1.1 µM and inactive = higher.
Tests used:
Assay in all cases: inhibition of tumour cell growth, NCI panel, 48 h
[1] = tested on: IGROV-1
[2] = tested on: SF-295
[3] = tested on: UACC-62
[4] = tested on: NCI/ADR-RES
[5] = tested on: MDA-MB-231
[6] = tested on: SNB-75
[7] = tested on: MDA-N
[8] = tested on: HL-60
[9] = tested on: PC-3
[10] = tested on: U-251
[11] = tested on: OVCAR-4
[12] = tested on: SNB-19
[13] = tested on: NCI-H522
[14] = tested on: ACHN
[15] = tested on: OVCAR-8
[16] = tested on: T47D
[17] = tested on: SK-MEL-2
[18] = tested on: SF-268
[19] = tested on: SK-MEL-28
[20] = tested on: NCI-H23

| SMILES | GI50 [1] | GI50 [2] | GI50 [3] | GI50 [4] | GI50 [5] | GI50 [6] | GI50 [7] | GI50 [8] | GI50 [9] | GI50 [10] | GI50 [11] | GI50 [12] | GI50 [13] | GI50 [14] | GI50 [15] | GI50 [16] | GI50 [17] | GI50 [18] | GI50 [19] | GI50 [20] |
| --- | --- | --- | --- | --- | --- | --- | --- | --- | --- | --- | --- | --- | --- | --- | --- | --- | --- | --- | --- | --- |
| O=S(=O)(c1ccc2ccccc2c1)N1CCN(S(=O)(=O)c2ccc3ccccc3c2)CC1 | > 100 µM (inactive) | > 100 µM (inactive) | > 100 µM (inactive) | > 100 µM (inactive) | > 100 µM (inactive) | 18.9 µM (inactive) | > 100 µM (inactive) | > 100 µM (inactive) | > 100 µM (inactive) | > 100 µM (inactive) | > 100 µM (inactive) | 69.7 µM (inactive) | > 100 µM (inactive) | > 100 µM (inactive) | 93.1 µM (inactive) | > 100 µM (inactive) | > 100 µM (inactive) | > 100 µM (inactive) | > 100 µM (inactive) | > 100 µM (inactive) |
| COc1cc(C2c3cc4c(cc3OC(N3CCOCC3)C2C)OCO4)cc(OC)c1OC(C)=O (centres undefined) | 14.2 µM (inactive) | 4.15 µM (inactive) | 5.53 µM (inactive) | 4.69 µM (inactive) | 18 µM (inactive) | 3.74 µM (inactive) | 1.99 µM (inactive) | 4.65 µM (inactive) | 13.5 µM (inactive) | 14.3 µM (inactive) | 57.3 µM (inactive) | 15.5 µM (inactive) | 4.3 µM (inactive) | 26.6 µM (inactive) | 26 µM (inactive) | 17.4 µM (inactive) | 12.9 µM (inactive) | 39.3 µM (inactive) | > 42.1 µM (inactive) | 31.3 µM (inactive) |
| CCCCCCCCCCNC1CC(OC2CC(O)(C(O)CO)Cc3c(O)c4c(c(O)c32)C(=O)c2c(OC)cccc2C4=O)OC(C)C1O (centres undefined) | 1.74 µM (inactive) | 1.9 µM (inactive) | 1.79 µM (inactive) | 1.88 µM (inactive) | 1.36 µM (inactive) | 1.62 µM (inactive) | 1.5 µM (inactive) | 0.434 µM (active) | 1.47 µM (inactive) | 0.986 µM (active) | 1.53 µM (inactive) | 1.88 µM (inactive) | 1.76 µM (inactive) | 1.73 µM (inactive) | 1.55 µM (inactive) | 1.86 µM (inactive) | 1.4 µM (inactive) | 1.92 µM (inactive) | 1.76 µM (inactive) | 2.63 µM (inactive) |
| OCCCNCC(O)c1ccc(OCc2ccccc2)c(OCc2ccccc2)c1 (centres undefined) | 10.2 µM (inactive) | 10.4 µM (inactive) | 20 µM (inactive) | 18.7 µM (inactive) | 14 µM (inactive) | 6.12 µM (inactive) | 9.64 µM (inactive) | 6.38 µM (inactive) | 10.9 µM (inactive) | 9.75 µM (inactive) | 7.41 µM (inactive) | 17.3 µM (inactive) | 14.1 µM (inactive) | 10.4 µM (inactive) | 11.4 µM (inactive) | 15.6 µM (inactive) | 8.02 µM (inactive) | 15.3 µM (inactive) | 8.95 µM (inactive) | 17.5 µM (inactive) |
| COc1cc(O)c2c(O)c3c(c4c2c1[C@]1(C4)C(C)=CCCC1(C)C)[C@H](O)[C@@]1(O)CC(O)=C(C(N)=O)C(=O)[C@@]1(O)C3=O | 0.643 µM (active) | 0.322 µM (active) | 0.573 µM (active) | 0.345 µM (active) | 0.259 µM (active) | 0.108 µM (active) | 0.333 µM (active) | 0.164 µM (active) | 0.119 µM (active) | 0.0453 µM (active) | 0.245 µM (active) | 0.42 µM (active) | 0.071 µM (active) | 0.209 µM (active) | 0.113 µM (active) | 0.365 µM (active) | 0.236 µM (active) | 0.269 µM (active) | 0.873 µM (active) | 0.164 µM (active) |
| COC(=O)C1CCN(C(=O)OC(C)(C)C)CC1 | > 100 µM (inactive) | > 100 µM (inactive) | > 100 µM (inactive) | > 100 µM (inactive) | > 100 µM (inactive) | > 100 µM (inactive) | > 100 µM (inactive) | > 100 µM (inactive) | > 100 µM (inactive) | > 100 µM (inactive) | > 100 µM (inactive) | > 100 µM (inactive) | > 100 µM (inactive) | > 100 µM (inactive) | > 100 µM (inactive) | > 100 µM (inactive) | > 100 µM (inactive) | > 100 µM (inactive) | > 100 µM (inactive) | > 100 µM (inactive) |
| CCCCCCCCCCc1c2nc(c(CCCCCCCCCC)c3ccc([nH]3)c(CCCCCCCCCC)c3nc(c(CCCCCCCCCC)c4ccc1[nH]4)C=C3)C=C2 | > 100 µM (inactive) | > 100 µM (inactive) | > 100 µM (inactive) | > 100 µM (inactive) | > 100 µM (inactive) | > 100 µM (inactive) | > 100 µM (inactive) | > 100 µM (inactive) | > 100 µM (inactive) | > 100 µM (inactive) | > 100 µM (inactive) | > 100 µM (inactive) | > 100 µM (inactive) | > 100 µM (inactive) | > 100 µM (inactive) | > 100 µM (inactive) | > 100 µM (inactive) | > 100 µM (inactive) | > 100 µM (inactive) | > 100 µM (inactive) |
| C[C@]12CC[C@H](O)CC1=CC[C@@H]1[C@@H]2CC[C@]2(C)C(=N/N)/C(=N\O)C[C@@H]12 | 21 µM (inactive) | 35.1 µM (inactive) | 58.5 µM (inactive) | > 100 µM (inactive) | 32.7 µM (inactive) | 7.5 µM (inactive) | 11.9 µM (inactive) | 9.91 µM (inactive) | > 100 µM (inactive) | 21.6 µM (inactive) | 57.4 µM (inactive) | 35.2 µM (inactive) | 31.7 µM (inactive) | > 100 µM (inactive) | > 100 µM (inactive) | > 100 µM (inactive) | 88.5 µM (inactive) | 59.7 µM (inactive) | – | > 100 µM (inactive) |
| CN(C)CC(O)c1ccc(Cl)c2ccccc12 (centres undefined) | 39.5 µM (inactive) | 24.3 µM (inactive) | 17.5 µM (inactive) | 81.5 µM (inactive) | 27.5 µM (inactive) | 17.4 µM (inactive) | 24.8 µM (inactive) | 9.12 µM (inactive) | 36.9 µM (inactive) | 37.1 µM (inactive) | 63.4 µM (inactive) | > 70 µM (inactive) | 33.2 µM (inactive) | 45 µM (inactive) | > 90.4 µM (inactive) | 21 µM (inactive) | 19.3 µM (inactive) | 55.6 µM (inactive) | 19.6 µM (inactive) | > 87.1 µM (inactive) |
| O=c1[nH]nc(Cc2ccccc2)n1/N=C\CC/C=N\n1c(Cc2ccccc2)n[nH]c1=O | 14.3 µM (inactive) | 39.1 µM (inactive) | 16.8 µM (inactive) | 19.4 µM (inactive) | 61.9 µM (inactive) | 24.4 µM (inactive) | 44.7 µM (inactive) | 21.9 µM (inactive) | 37.4 µM (inactive) | 34 µM (inactive) | 48.8 µM (inactive) | 42.9 µM (inactive) | 61.1 µM (inactive) | 49.9 µM (inactive) | 23.1 µM (inactive) | 30.9 µM (inactive) | 31.3 µM (inactive) | 23.8 µM (inactive) | 30.1 µM (inactive) | 23 µM (inactive) |

From ChEMBL document CHEMBL1201862, “PubChem BioAssay data set” (2004)
